Earlier results on two compounds are cited in US20210400979A1, “ANTI-VIRAL FACE MASK AND FILTER MATERIALS” (priority 2020, published 2021).

Series [1] concerns RTCs of SARS-CoV (RNA-synthesizing activity). The settings on record: RTCs isolated from SARS-CoV infected cells, various Zn^2+ concentrations (FIG. 13A).

On to zinc picolinate, for which the “water solubility (in words)” value is given as “moderately water soluble”.
With `[Zn+2]` [Zn^2+], the “RNA-synthesizing activity of the RTCs of the virus” value in series [1] was “efficiently inhibits”.
